Laboratory results taken from patent US11390631B1, “Benzodiazepine derivatives as RSV inhibitors” (priority 2015, dated 2022).

Key:
[1] = tested on: Human RSV-A (“Long” strain); assay: RSV-A assay: inhibition of cytopathic effect in Hep-2 cells, ATPlite readout; type: cell-based, Human respiratory syncytial virus (HRSV); details: human respiratory syncytial virus, HEp-2, 120 h, read-out: Human RSV-A (“Long” strain) EC50
Method in brief: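 Cytopathic-effect protection was read as ATP content (ATPlite luminescence) after a 5-day incubation. Setup: Hep-2 cells at 8,000 per well, RSV-A Long at MOI 0.1, 2-fold serial compound dilutions in duplicate. Cytotoxicity (CC50) was measured on an identical uninfected plate run in parallel.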

[2] = Cytotoxicity on parallel plate without virus, ATPlite readout; type: cell-based; details: human, Hep-2 cells (no virus), Hep-2 cells without virus, 5-day incubation
Experimental: Following extensive parameter testing, the final assay is run as follows: Hep-2 cells are seeded into the inner 60 wells of a 96-well plate at 8,000 cells per well in a volume of 50 μL using Growth Media (DMEM without phenol red, 1% L-Glut, 1% Penn/Strep, 1% nonessential amino acids, 10% heat-inactivated FBS). 2-fold serial dilutions of control and test compounds are added to the wells in duplicate in a total volume of 25 μL. Viral stock is then added to the wells at a multiplicity of infection (MOI) of 0.1 in a volume of 25 μL, bringing the total volume of each well to 100 μL. The MOI is calculated using the PFU/mL, or TCID50 if unavailable. Each 96-well plate has a control column of 6 wells with cells and virus but no compound (negative control, max CPE), a column with cells but no compound or virus (positive control, minimum CPE), and a column with no cells or virus or compound (background plate/reagent control). The control wells with cells but no virus are given an additional 25 uL of growth media containing an equal quantity of sucrose as those wells receiving the viral stock in order to keep consistent in media and volume conditions. The outer wells of the plate are filled with 125 μL of moat media (DMEM, 1% Penn/Strep) to act as a thermal and evaporative moat around the test wells. Following a 5-day incubation period, the plates are read using ATPlite (50 uL added per well), which quantifies the amount of ATP (a measure of cell health) present in each well. Assay plates are read using the Envision luminometer. In parallel, cytotoxicity is examined on an additional 96-well plate treated in an identical manner, but substituting the 25 μL of viral stock for 25 μL of growth media. […] EC50 ranges are as follows: A<0.4 μM; B 0.4-0.8 μM; C>0.8 μM and CC50 ranges are as follows: A>50 μM; B 10-50 μM; C<10 μM.

| SMILES | EC50 [1] | CC50 at 5 days [2] |
| --- | --- | --- |
| COCCOc1cccc(-c2nnc(NC3N=C(c4ccccc4)c4ccccc4NC3=O)o2)c1 (centres unmarked) [Example 1] | > 800 nM | > 50000 nM |
| O=C1Nc2ccccc2C(c2ccccc2)=NC1Nc1nnc(-c2ccccc2)o1 (centres unmarked) [Example 2] | > 800 nM | > 50000 nM |
| O=C1Nc2ccccc2C(c2ccccc2)=NC1Nc1nnc(-c2cccc(F)c2)o1 (centres unmarked) [Example 3] | > 800 nM | > 50000 nM |
| COc1cccc(-c2nnc(NC3N=C(c4ccccc4)c4ccccc4NC3=O)o2)c1 (centres unmarked) [Example 4] | > 800 nM | > 50000 nM |
| O=C1Nc2ccccc2C(c2ccccc2)=NC1Nc1nnc(C2CC2)o1 (centres unmarked) [Example 5] | > 800 nM | > 50000 nM |
| O=C1Nc2ccccc2C(c2ccccc2)=NC1Nc1nnc(-c2ccccc2F)o1 (centres unmarked) [Example 6] | > 800 nM | > 50000 nM |
| O=C1Nc2ccccc2C(c2ccccc2)=N[C@H]1Nc1nnc(-c2ccc(F)cc2)o1 [Example 7b] | > 800 nM | 10000 to 50000 nM |
| COc1ccc(-c2nnc(NC3N=C(c4ccccc4)c4ccccc4NC3=O)o2)cc1 (centres unmarked) [Example 8] | > 800 nM | > 50000 nM |
| COc1ccccc1-c1nnc(NC2N=C(c3ccccc3)c3ccccc3NC2=O)o1 (centres unmarked) [Example 9] | > 800 nM | > 50000 nM |
| O=C1Nc2ccccc2C(c2ccccc2)=N[C@@H]1Nc1nnc(-c2ccco2)o1 [Example 10a] | 400 to 800 nM | > 50000 nM |
| O=C1Nc2ccccc2C(c2ccccc2)=N[C@H]1Nc1nnc(-c2ccco2)o1 [Example 10b] | > 800 nM | < 10000 nM |
| O=C1Nc2ccccc2C(c2ccccc2)=NC1Nc1nnc(-c2ccccn2)o1 (centres unmarked) [Example 11] | 400 to 800 nM | > 50000 nM |
| N#Cc1ccc(-c2nnc(NC3N=C(c4ccccc4)c4ccccc4NC3=O)o2)cc1 (centres unmarked) [Example 12] | 400 to 800 nM | > 50000 nM |
| O=C1Nc2ccccc2C(c2ccccc2)=NC1Nc1nnc(-c2ccc(Cl)cc2)o1 (centres unmarked) [Example 13] | < 400 nM | > 50000 nM |
| COc1cc(-c2nnc(NC3N=C(c4ccccc4)c4ccccc4NC3=O)o2)ccc1F (centres unmarked) [Example 14] | < 400 nM | 10000 to 50000 nM |
| CC(C)Oc1cccc(-c2nnc(NC3N=C(c4ccccc4)c4ccccc4NC3=O)o2)c1 (centres unmarked) [Example 15] | 400 to 800 nM | > 50000 nM |
| O=C1Nc2ccccc2C(c2ccccc2)=NC1Nc1nnc(-c2ccc3ccccc3c2)o1 (centres unmarked) [Example 16] | 400 to 800 nM | > 50000 nM |
| O=C1Nc2ccccc2C(c2ccccc2)=NC1Nc1nnc(-c2cccc3ccccc23)o1 (centres unmarked) [Example 17] | > 800 nM | > 50000 nM |
| Cc1nnc(NC2N=C(c3ccccc3)c3ccccc3NC2=O)o1 (centres unmarked) [Example 18] | > 800 nM | > 50000 nM |
| Cc1ccc(-c2nnc(NC3N=C(c4ccccc4)c4ccccc4NC3=O)o2)s1 (centres unmarked) [Example 19] | > 800 nM | > 50000 nM |
| O=C1Nc2ccccc2C(c2ccccc2)=NC1Nc1nnc(-c2ccc(Cl)o2)o1 (centres unmarked) [Example 20] | > 800 nM | > 50000 nM |
| O=C1Nc2ccccc2C(c2ccccc2)=NC1Nc1nnc(C2CCOCC2)o1 (centres unmarked) [Example 21] | > 800 nM | > 50000 nM |
| O=C1Nc2ccccc2C(c2ccccc2)=NC1Nc1nnc(Cc2ccccc2)o1 (centres unmarked) [Example 22] | > 800 nM | > 50000 nM |
| O=C1Nc2ccccc2C(c2ccccc2)=NC1Nc1nnc(-c2ccc(F)cn2)o1 (centres unmarked) [Example 23] | > 800 nM | > 50000 nM |
| O=C1Nc2ccccc2C(c2ccccc2)=NC1Nc1nnc(-c2ccc(C(F)(F)F)cn2)o1 (centres unmarked) [Example 25] | > 800 nM | > 50000 nM |

| SMILES | EC50 [1] | CC50 at 5 days [2] |
| --- | --- | --- |
| Cc1cccc(-c2nnc(NC3N=C(c4ccccc4)c4ccccc4NC3=O)o2)n1 (centres unmarked) [Example 26] | > 800 nM | > 50000 nM |
| CS(=O)(=O)c1ccc(-c2nnc(NC3N=C(c4ccccc4)c4ccccc4NC3=O)o2)cc1 (centres unmarked) [Example 27] | > 800 nM | > 50000 nM |
| O=C1Nc2ccccc2C(c2ccccc2)=NC1Nc1nnc(-c2ccc(C(F)(F)F)cc2)o1 (centres unmarked) [Example 28] | > 800 nM | > 50000 nM |
| O=C1Nc2ccccc2C(c2ccccc2)=NC1Nc1nnc(-c2cccc(C(F)(F)F)c2)o1 (centres unmarked) [Example 29] | > 800 nM | > 50000 nM |
| O=C1Nc2ccccc2C(c2ccccc2)=NC1Nc1nnc(-c2ccc(OC(F)(F)F)cc2)o1 (centres unmarked) [Example 30] | > 800 nM | > 50000 nM |
| NS(=O)(=O)c1ccc(-c2nnc(NC3N=C(c4ccccc4)c4ccccc4NC3=O)o2)cc1 (centres unmarked) [Example 31] | 400 to 800 nM | > 50000 nM |
| N#Cc1cc(-c2nnc(NC3N=C(c4ccccc4)c4ccccc4NC3=O)o2)ccc1F (centres unmarked) [Example 32] | 400 to 800 nM | > 50000 nM |
| N#Cc1ccc(-c2nnc(NC3N=C(c4ccccc4)c4ccccc4NC3=O)o2)cc1F (centres unmarked) [Example 33] | > 800 nM | > 50000 nM |
| Cc1cc(-c2nnc(NC3N=C(c4ccccc4)c4ccccc4NC3=O)o2)ccc1C#N (centres unmarked) [Example 34] | 400 to 800 nM | > 50000 nM |
| N#Cc1cccc(-c2nnc(NC3N=C(c4ccccc4)c4ccccc4NC3=O)o2)c1 (centres unmarked) [Example 35] | > 800 nM | > 50000 nM |
| O=C1Nc2ccccc2C(c2ccccc2)=NC1Nc1nnc(-c2ccc(-n3cccn3)cc2)o1 (centres unmarked) [Example 36] | 400 to 800 nM | 10000 to 50000 nM |
| O=C1Nc2ccccc2C(c2ccccc2)=NC1Nc1nnc(-c2cccnc2)o1 (centres unmarked) [Example 37] | > 800 nM | > 50000 nM |
| N#Cc1cc(-c2nnc(NC3N=C(c4ccccc4)c4ccccc4NC3=O)o2)ccn1 (centres unmarked) [Example 38] | > 800 nM | > 50000 nM |
| O=C1Nc2ccccc2C(c2ccccc2)=NC1Nc1nnc(-c2ccc(=O)[nH]c2)o1 (centres unmarked) [Example 39] | > 800 nM | > 50000 nM |
| O=C1Nc2ccccc2C(c2ccccc2)=NC1Nc1nnc(-c2cc[nH]c(=O)c2)o1 (centres unmarked) [Example 40] | > 800 nM | > 50000 nM |
| O=C1Nc2ccccc2C(c2ccccc2)=NC1Nc1nnc(-c2ccc3nc[nH]c3c2)o1 (centres unmarked) [Example 41] | > 800 nM | > 50000 nM |
| O=C1Nc2ccccc2C(c2ccccc2)=NC1Nc1nnc(-c2cc3cccnc3s2)o1 (centres unmarked) [Example 43] | > 800 nM | > 50000 nM |
| CN1CCc2nc(-c3nnc(NC4N=C(c5ccccc5)c5ccccc5NC4=O)o3)sc2C1 (centres unmarked) [Example 44] | > 800 nM | > 50000 nM |
| O=C1Nc2ccccc2C(c2ccccc2)=NC1Nc1nnc(C2CCNCC2)o1 (centres unmarked) [Example 45] | > 800 nM | > 50000 nM |
| CN1CCC(c2nnc(NC3N=C(c4ccccc4)c4ccccc4NC3=O)o2)CC1 (centres unmarked) [Example 46] | > 800 nM | > 50000 nM |
| CC(=O)N1CCC(c2nnc(NC3N=C(c4ccccc4)c4ccccc4NC3=O)o2)CC1 (centres unmarked) [Example 47] | > 800 nM | > 50000 nM |
| O=C1Nc2ccccc2C(c2ccccc2)=NC1Nc1nnc([C@@H]2COCCN2)o1 (some centres unmarked) [Example 48] | > 800 nM | > 50000 nM |
| O=C1Nc2ccccc2C(c2ccccc2)=NC1Nc1nnc([C@H]2COCCN2)o1 (some centres unmarked) [Example 49] | > 800 nM | > 50000 nM |
| O=C1Nc2ccccc2C(c2ccccc2)=NC1Nc1nnc(-c2ccc(F)cc2F)o1 (centres unmarked) [Example 50] | > 800 nM | > 50000 nM |
